Consider three molecules from patent US4986985A, “Method of treating skin virus infections” (Bar Ilan University, priority 1987, dated 1991).

Structures are written as SMILES.

For this assay, the system named is peroxide level in the skin. Nature of the assay: TBA test of peroxide level in skin of adult mice after topical application. The format is in vivo. As to conditions: 0.1% dissolved in Oil of Olay, similar experiments. From the text: Samples of lotions and appropriate controls were applied to mice or rat skin for a fixed period. The application was done once a day. Experiments were terminated by killing the animal, peeling the skin and freezing it in liquid nitrogen. Samples of the frozen skin were homogenized in 0.2M phosphate buffer, pH 6.5. After centrifugation, the supernatant was collected and analyzed for the peroxide value using the TBA (thiobarbituric acid) test as described by Sinnhuber et al, Food Res. 23: 620 (1958). In the experiments which follow, newborn (hairless) rats were used. It is generally considered that the penetration through the skin of newborn rats is better than in adult rats, since at this stage they have not yet developed any fur.
In these experiments adult mice (2 months old) were treated as described in Example 2. The grown mice were shaved before applying the lotions to the skin.
In this experiment the antioxidant was dissolved in Oil of Olay. Mice were sacrificed after 21 days.

On to `COc1ccc(O)c(C(C)(C)C)c1` [BHA], for which the “reduction of the level of peroxides” value is “no reduction of the level of peroxides was observed”.

With `Cc1cc(C(C)(C)C)c(O)c(C(C)(C)C)c1` [BHT], the “reduction of the level of peroxides” value is reported as “no reduction of the level of peroxides was observed”.

`Cc1c(C)c2c(c(C)c1O)CCC(C)(CCCC(C)CCCC(C)CCCC(C)C)O2` (stereo not drawn) [alpha tocopherol]: the “reduction of the level of peroxides” value is “no reduction of the level of peroxides was observed”.
